Measured values as given in patent publication US6645504B1, “Bystander suppression of type I diabetes by oral administration of glucagon” (AutoImmune Inc., priority 1987, dated 2003).
“And” between values parts separate entries of the source, which are not always exact repeats. Equal values may be shown once.

Legend:
[1] = tested on: MBP specific T-cells; test: Treatment of supernatants with anti-cytokine antibodies; format: cell-based, Lewis rats; details: added to spleen cells of MBP-fed animals stimulated with MBP; FIG. 2
Method: In Vitro Suppression Of Proliferative Responses By Supernatants. Spleen cells were removed 7-14 days after the last feeding and a single cell suspension prepared by pressing the spleens through a stainless steel mesh. For preparation of supernatants, spleen cells at a concentration of 5×10^6 cells/ml were stimulated in vitro with MBP (50 μg/ml) in 10 ml of proliferation medium. Proliferation medium consisted of RPMI 1640 (GIBCO, Grand Island, N.Y.) supplemented with 2×10^−5 M 2-mercaptoethanol, 1% sodium pyruvate, 1% penicillin and streptomycin, 1% glutamine, 1% HEPES buffer, 1% nonessential amino acids and 1% autologous serum. Supernatants were harvested at 24 hours and 100 μl added to 2.5×10^4 MBP specific T-cells, raised and maintained as previously described (Ben-Nun, A. et al., Eur. J. Immunol. 11:195-199, 1981), cultured with 5×10^5 irradiated (2500 rad) thymocytes, in 100 μl of proliferation media. MBP ([…]) was added to the culture in a volume of 20 μl. Experiments were performed in triplicate in round bottomed 96-well plates (Costar, Cambridge, Mass.). Cells were cultured for 72 hours at 37° C. in an incubator with humidified 6% CO2 and 94% air atmosphere, and each well was pulsed with 1 μCi of ^3H thymidine for the last 18 hours of culture. Cultures were harvested onto fiberglass filters using a multiharvester and counted using standard liquid scintillation techniques. […]

[2] = tested on: TGF-β; test: Measurement of TGF-β activity in serum-free culture supernatants of spleen cells; format: cell-based, Lewis rats; details: spleen cells of fed animals stimulated in vitro with the fed antigen
Method: Measurement Of TGF-β Activity In Serum-Free Culture Supernatants. Serum free culture supernatants were collected as previously described (Kehri, et al. J. Exp. Med. 163: 1037-1050, 1986; Wahl, et al. J. […] Thereafter cells were washed three times and resuspended in serum-free medium for the remainder of the 72 hour culture, collected, then frozen until assayed. Determination of TGF-β content and isoform type in supernatants was performed using a mink lung epithelial cell line (American Type Culture Collection, Bethesda, Md. #CCL-64) according to Danielpour et al. (supra), and confirmed by a Sandwich Enzyme Linked Immunosorbent Assay (SELISA) assay as previously described (Danielpour et al. Growth Factors 2: 61-71,1989). The percent active TGF-β was determined by assay without prior acid activation of the samples.

[3] = tested on: MBP line; test: Transwell culture suppression of MBP T cell line; format: cell-based, Lewis rats; details: MBP line + MBP
Description: (§1) Transwell Cultures. A dual chamber transwell culture system (Costar, Cambridge, Mass.), which is 24.5 mm in diameter and consists of two compartments separated by a semi-permeable polycarbonate membrane, with a pore size of 0.4 μm, was used. The two chambers are 1 mm apart, allowing cells to be coin-cubated in close proximity without direct cell-to-cell contact. To measure in vitro suppression of proliferative responses in transwell cultures, 5×10^4 MBP- or OVA-specific line cells, raised and maintained as previously described (Ben-Nun, A. et al., Eur. J. Immunol. 11:195, 1981), were cultured with 10^6 irradiated (2,500 rad) thymocytes, in 600 μl of proliferation media in the lower well. Spleen cells from orally tolerized rats or controls (fed BSA) were added to the upper well (5×10^5 cells in 200 μl). Spleen cells were removed 7-14 days after the last feeding, and a single cell suspension was prepared by pressing the spleens through a stainless steel mesh. MBP and OVA (50 μg/ml) were added in a volume of 20 μl. […] In some experiments, modulator cells were added in the lower well together with responder cells, and in these instances modulator cells were irradiated (1,250 rad) immediately before being placed in culture. Proliferation media consisted of RPMI 1640 (Gibco Laboratories, Grand Island, N.Y.) supplemented with […] 2-mercaptoethanol, 1% sodium pyruvate, 1% penicillin and streptomycin, 1% glutamine, 1% HEPES buffer, 1% nonessential amino acids, and 1% autologous serum. Each transwell was performed in quadruplicate. The transwells were incubated at 37° C. in a humidified 6% CO2 and 94% air atmosphere for 72 hours. After 54 hours of culture, each lower well was pulsed with 4 μCi of [^3H]thymidine and at 72 hours split and reseeded to three wells in a round-bottomed 96-well plate (Costar) for harvesting onto fiberglass filters and counting using standard liquid scintillation techniques. Percent suppression =100×(1−Δ A cpm responders cultured with modulators/Δ cpm of responders).

[4] = tested on: EAE; test: In vivo bystander suppression of EAE (MBP/CFA plus secondary antigen); set-up: species or system Lewis rats
Method: Immunization Of Animals. Animals were immunized with 25 μg of MBP in the footpad, emulsified in an equal volume of CFA containing 4 mg/ml of Mycobacterium tuberculosis (Difco Labs, Detroit, Mich.) in order to induce a substantial EAE disease state. For in vivo bystander suppression experiments, 50-300 μg of the secondary antigens OVA, BSA or KLH were injected subcutaneously in the same footpad in 100 μl PBS 8 hours after primary immunization with MBP CFA.
Clinical Evaluation. Animals were evaluated in a blinded fashion every day for evidence of EAE in order to correlate the clinical manifestations of Bystander Suppression with the in vitro assays described below. Clinical severity of EAE was scored as follows: 0, no disease; 1, limp tail; 2, hind limb paralysis; 3, hind limb paraplegia, incontinence; 4, tetraplegia; 5, death. Mean maximal clinical severity was calculated as previously described for each experimental group (7). Statistical analysis was performed using a one-tailed student's t test and a chi square analysis for comparing incidence between groups.
Induction Of Oral Tolerance. Animals were fed 1 mg MBP, OVA, BSA or KLH dissolved in 1 ml PBS or PBS alone, by gastric intubation using an 18-gauge stainless steel animal feeding needle (Thomas Scientific, Swedesboro, N.J.). Animals were fed five times (total dose of 5 mg), at intervals of 2-3 days with the last feeding 2 days before immunization.

[5] = tested on: DTH responses to MBP or OVA; test: Delayed type hypersensitivity (DTH) testing, Example 2; format: in vivo, Lewis rats
Method: Delayed Type Hypersensitivity (DTH) Testing. DTH was tested by injecting 50 μg of MBP or OVA in PBS, subcutaneously into the ear. MBP was injected in the left ear and OVA in the right ear in the same animal. Thickness, in units of 0.01 inch, was measured in a blinded fashion, before and 48 hours after challenge, using micrometer calipers (Mitutoyo, Utsunomia, Japan). Change in ear thickness before and after challenge was recorded for each animal, and results were expressed as the mean for each experimental group ± SEM; each group consisted of five animals.

[6] = tested on: EAE; test: Adoptive transfer of disease suppression; format: in vivo, Lewis rats; details: naive recipients immunized with MBP/CFA and given OVA subcutaneously; FIG. 9
Method: Adoptive Transfer Of Disease Suppression. In order to monitor the adoptive transfer of disease suppression occurring during Bystander Suppression donor rats were fed either 1 mg MBP, OVA, or KLH, five times at 2 day intervals and killed 7-14 days after the final feeding. Spleen cells were harvested, and incubated in vitro with the homologous antigen (50 μg/ml) in proliferation medium, for 72 hours. Cells were injected intraperitoneally: 10^8 cells for whole spleen populations or 5-6×10^7 cells for CD8− or CD4-depleted populations. Recipient animals were irradiated (250 rad) before adoptive transfer, immunized with MBP/CFA 6 hours after adoptive transfer, and challenged 8 hours later with 50 μg OVA.

[7] = tested on: rheumatoid arthritis symptoms; test: Oral collagen in humans with rheumatoid arthritis; format: in vivo; details: 0.1-1.0 mg single dose daily
Description: The above animal models can be used to establish the utility of the present invention in mammals (including humans). […] All of these human trials were attempted based on animal data using the appropriate disease model.

[8] = tested on: MBP-primed lymphoid cells; test: Proliferation of MBP-primed lymphoid cells in response to overlapping guinea pig MBP peptides; format: cell-based, rats; details: lymph node cells triggered with MBP-peptides; FIG. 10
Description: The disease-inducing fragments (autoimmune response epitopes) of MBP were first confirmed as follows: Overlapping peptides as detailed in FIG. 10, of guinea pig MBP were obtained from commercial sources or synthesized in accordance with well-known techniques, specifically using a commercial peptide synthesis apparatus (from Applied Biosystems) and following the manufacturer's instructions. Whole MBP was then fed to rats and lymph node cells from the orally tolerized animals were triggered with the MBP-peptides. The ability of the triggered cells to induce killer T-cells was then quantitatively determined by a proliferation assay also, as described in Examples 1 and 2, and by testing the ability of the proliferating cells to transfer the disease.

[9] = tested on: OVA (responder) line; test: Transwell triggering of suppression by MBP peptides; format: cell-based, rats; details: peptide added to modulator well with spleen cells of MBP-fed animals; FIG. 11
Description: as §1
The Transwell System of Example 2 above was used to identify the epitopes present on guinea pig MBP which induce the release of TGF-β from suppressor T-cells.
Peptides corresponding to guinea pig MBP residue nos.

[10] = tested on: EAE; test: EAE induced by guinea pig MBP 71-90, feeding of MBP peptides; format: in vivo, Lewis rats; details: fed; FIG. 14
Method: The effects of feeding various peptides to Lewis rats induced for EAE by guinea pig MBP residue nos. 71-90 (the major immunodominant epitope of guinea pig MBP as shown in Example 3 above) were also studied.
EAE was induced by immunizing with 0.25 mg of guinea pig MBP amino acid residue nos 71-90 in Complete Freund's Adjuvant and the effect of feeding various guinea pig MBP peptides on EAE was examined.

[11] = tested on: DTH responses; test: DTH responses in animals fed MBP or MBP peptides; format: in vivo, Lewis rats; details: FIG. 15
Description: Guinea pig MBP peptide 131-150 was ineffective in this case. Peptides were also fed with STI which prevents their breakdown by gastric juices and enhances their biological effect. DTH responses to whole MBP were suppressed by feeding MBP or any one of the MBP-peptides 21-40, or 71-90.

[12] = tested on: EAE; test: I.V. tolerization with MBP and MBP peptides in EAE induced with whole guinea pig MBP; format: in vivo, SJL/J mice; details: days 8 and 9 post immunization, FIG. 16
Description: FIG. 16 is a bar graph showing the effect of intravenous tolerization with MBP and disease inducing and non-inducing fragments thereof on induced EAE expression in SJL/J mice.
Finally, the suppression of EAE by I.V. tolerization with MBP and MBP peptides prior to disease expression (on days 8 and 9 post immunization) was examined.

[13] = OVA-fed modulators + OVA in upper well
[14] = OVA-fed modulators in upper well without OVA

## COc1ccc2c(c1)c(CC(=O)O)c(C)n2C(=O)c1ccc(Cl)cc1 [indomethacin]
[1]
  effect on suppression mediated by the supernatants: No effect on suppression

## OVA: Ovalbumin purchased from Sigma
[2]
  TGF-β in the active form: 65±9%
[2]; serum-free
  amount of TGF-β: 6.1 ± 1.0 ng/mL
[3]; [13]
  Percent Suppression: 47%
  Δ cpm: 37,778 ± 3,780 cpm
[3]; [14]
  Percent Suppression: 6%
  Δ cpm: 67,075 ± 2,904 cpm
[4]; OVA fed (1 mg, five times) plus OVA given subcutaneously after MBP/CFA, FIG. 6B
  disease severity: 0.9±0.2
[4]; OVA fed and KLH given subcutaneously (control group), FIG. 6B
  disease severity: 3.9±0.1
[4]; animals fed OVA in whom KLH was given after MBP/CFA plus OVA subcutaneously, FIG. 6C, two values 'respectively'
  disease severity: 3.7±0.1 and 3.8±0.2
[4]; fed antigen, same antigen subcutaneously after MBP/CFA
  dose of secondary antigen given subcutaneously at which suppression of EAE occurred: 50 µg
[4]; not fed, OVA given subcutaneously in footpad 8 hours after MBP/CFA, FIG. 6A
  mean maximal clinical disease severity: 3.8±0.1
[5]; OVA fed, OVA subcutaneously in association with MBP/CFA
  DTH response to OVA: did not generate an immune response to OVA
[5]; fed antigen, then immunized with MBP/CFA plus OVA, FIG. 7
  DTH responses to MBP: Suppressed DTH responses to MBP
[6]
  adoptive transfer of protection by spleen cells from fed animals: adoptively transferred protection

## collagen
[7]
  rheumatoid arthritis symptoms (joint tenderness, AM stiffness, grip strength): successfully suppressed

## guinea pig MBP 71-90: peptide spanning residue 71-90 of guinea pig MBP, the immunodominant epitope (SLPQKSQRSQDENPVVHFFK; UniProt P25188 71-90, looked up, fragment)
[8]
  induction of killer T-cells (proliferation): by far the most efficient inducer of killer T-cells
[9]
  triggering suppression of proliferation in the transwell system: ineffective in triggering suppression
[10]
  down-regulation of EAE induced by guinea pig MBP 71-90: equally effective in down-regulating EAE
[11]
  DTH responses to guinea pig MBP peptide 71-90: suppressed
  DTH responses to whole MBP: suppressed
[12]
  suppression of EAE induced with whole guinea pig MBP: effective in suppressing EAE
